Patent US9987296B2, “Compositions including anthocyanin or anthocyanidin for the prevention or treatment of Articular cartilage-associated conditions” (priority 2008, dated 2018)
Read-outs that look alike come from different tables or passages of the source.

Key:
bovine chondrocytes = experiment: Matrix synthesis rate (35S) of bovine chondrocytes in alginate beads; format: cell-based; details: 100 uM with IL-1 5 ng/mL
Experimental: Chondrocytes were isolated from weight-bearing regions of young (18-30 months old) bovine femoral condyles. Primary cells were obtained from 3 different animals and suspended in beads of 2% alginate. The alginate beads were precultured in DMEM supplemented with 10% calf serum for 48 hours. Before the experiments, the chondrocytes were serum-starved overnight with 0.1% serum to reduce the effect of serum and to reduce anabolic activity to baseline.
For each treatment condition, 10 millicuries of ^35S was added to each well and incubated for the appropriate duration. At the appropriate harvest time point, each well was then washed extensively with PBS (5-6 times with 500 uL, of PBS), before trypsin and EDTA was added to dissolve alginate. After 20-30 minutes, the dissolved gels and released cells were transferred into 1.5 ml Eppendorf tubes with 150 uL, of calf serum (to promote pellet formation) and the cells were centrifuged at 2000 rpm for 5 minutes. The supernatant was removed via pipette without disturbing the cell pellet. The remaining cell and supernatant (approximately 300 ul) was then mixed with 500 uL of PBS and transferred to scintillation vials, to which 5 ml of scintillation fluid was dispensed. Each scintillation vial was capped, thoroughly vortexed and then placed in a gamma counter to measure gamma radiation emission for each sample. Each sample was measured for 5 minutes.

[1] = test system: rodent pancreatic beta-cells; details: in culture, with 4 and 10 mM glucose; cited from earlier work
[2] = test system: Human articular chondrocytes; experiment: Cell viability (calcein AM / ethidium homodimer staining); format: cell-based; details: concentrations above 100 uM up to 500 uM, 96 hours
From the text: Chondrocytes were isolated from non-arthritic regions of adult human articular cartilage (N=3 donors) and expanded in tissue culture flasks in DMEM supplemented with 10% calf serum.
At higher concentrations, the color of the anthocyanin interfered with the spectrophotometer reading; therefore, cell viability was additionally measured with calcein staining as follows: Live and dead cells were simultaneously viewed in situ with a confocal microscope (LSM 510; Zeiss, Wetzlar, Germany), using a fluorescent double stain. Calcein AM (1 uM; Invitrogen, Carlsbad, Calif.), a fluorescein derivative that is metabolized by nonspecific esterase present in viable cells, was used to stain live cells. The use of 8 uM ethidium homodimer (Invitrogen), a nucleic acid stain that is excluded by intact cell membranes, enabled visualization of the nuclei of dead cells. After 96-hour exposure to the appropriate concentration of anthocyanins, chondrocytes were cultured in DMEM supplemented with Calcein AM and ethidium homodimer for 45 minutes. Live and dead cells were counted using an automated image analysis script written in Matlab (MathWorks, Natick, Mass.) to measure percentage cell viability.

[3] = test system: osteoarthritic synovium explants; details: cited from earlier work

Compound: Delphinidin-3-O-Glucoside
- matrix synthesis rates (anti-arthritic effect) (bovine chondrocytes; 12 hours, listed as Delphinidin-3-O-glucoside): reversed the effect of IL-1 suppression on matrix synthesis rates
- matrix synthesis rates (anti-arthritic effect) (bovine chondrocytes; 12 hours, listed as delphinidin-3-0-glucoside): anti-arthritic effect
- matrix synthesis rates (anti-arthritic effect) (bovine chondrocytes; 12 hours, listed as delphinidin-3-O-glucoside): anti-arthritic effect
- matrix synthesis rates (anti-arthritic effect) (bovine chondrocytes; 24 hours, listed as Delphinidin-3-O-glucoside): reversed the effect of IL-1 suppression on matrix synthesis rates
- matrix synthesis rates (anti-arthritic effect) (bovine chondrocytes; 24 hours, listed as delphinidin-3-0-glucoside): anti-arthritic effect
- matrix synthesis rates (anti-arthritic effect) (bovine chondrocytes; 24 hours, listed as delphinidin-3-O-glucoside): anti-arthritic effect
- insulin secretion [1]: stimulate insulin secretion
- toxicity relative to the other compounds tested [2]: least toxic at 200 μM

Compound: Oc1ccc(-c2[o+]c3cc(O)cc(O)c3cc2O)cc1.[Cl-] [Pelargonidin Chloride]
- insulin secretion [1]: stimulate insulin secretion

Compound: N[C@H]1C(O)O[C@H](CO)[C@@H](O)[C@@H]1O (stereo partly drawn) [glucosamine]
- increase of HA production ([3]; 0.5 mM): did not
- increase of HA production ([3]; 5 mM): approximately 2 fold

Compound: OC[C@H]1OC(Oc2cc3c(O)cc(O)cc3[o+]c2-c2ccc(O)cc2)[C@H](O)[C@@H](O)[C@H]1O.[Cl-] (stereo partly drawn) [pelargonidin-3-galactoses, reference compound]
- insulin secretion [1]: stimulate insulin secretion
